Assay results as given in ChEMBL document CHEMBL1201862, “PubChem BioAssay data set” (2004).
Values joined by “and” are separate entries in the source; they are usually repeats but may differ in a detail not shown here. Identical values can stand only once. Active and inactive are the calls of the source.

Tests used:
[1] = cells; assay type: functional, cell-based
[2] = cells; assay type: functional, cell-based; remark: listed apart in the source
[3] = biological target: T1, Adenosylmethionine-8-amino-7-oxononanoate aminotransferase (Mycobacterium tuberculosis, UniProt P9WQ81); assay: Mycobacterium tuberculosis BioA enzyme inhibitor Measured in Biochemical System Using Plate Reader - 2163-02_Inhibitor_Dose_CherryPick_Activity.; assay type: functional, Mycobacterium tuberculosis UT205
T1 sequence (P9WQ81 whole entry): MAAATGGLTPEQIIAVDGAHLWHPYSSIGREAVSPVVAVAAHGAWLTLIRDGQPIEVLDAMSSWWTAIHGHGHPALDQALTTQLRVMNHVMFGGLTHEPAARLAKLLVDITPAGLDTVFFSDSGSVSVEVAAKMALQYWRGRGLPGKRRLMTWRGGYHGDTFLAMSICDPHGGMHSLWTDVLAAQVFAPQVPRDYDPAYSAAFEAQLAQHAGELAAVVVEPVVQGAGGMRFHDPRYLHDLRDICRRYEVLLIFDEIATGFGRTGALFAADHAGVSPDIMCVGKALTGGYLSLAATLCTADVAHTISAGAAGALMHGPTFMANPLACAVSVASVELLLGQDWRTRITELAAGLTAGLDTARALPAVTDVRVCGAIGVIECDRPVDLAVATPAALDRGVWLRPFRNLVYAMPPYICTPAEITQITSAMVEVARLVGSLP

[4] = M. tuberculosis H37Rv growth inhibitors, H37Rv strain (AID 1626); assay type: functional
[5] = biological target: Dual specificity tyrosine-phosphorylation-regulated kinase 1A (Rattus norvegicus, UniProt Q63470); assay type: biochemical, Homo sapiens
[6] = microbe, parasite or virus in culture; assay type: functional; details: Mycobacterium tuberculosis
[7] = biological target: T2, Rac GTPase-activating protein 1 (Homo sapiens, UniProt Q9H0H5); assay: blockers of MgcRacGAP-driven Rac1 GTP hydrolysis – biochemical, ADP Hunter fluorescence, primary and confirmatory, confirmation (AID 624330); assay type: functional
T2 sequence (Q9H0H5 whole entry): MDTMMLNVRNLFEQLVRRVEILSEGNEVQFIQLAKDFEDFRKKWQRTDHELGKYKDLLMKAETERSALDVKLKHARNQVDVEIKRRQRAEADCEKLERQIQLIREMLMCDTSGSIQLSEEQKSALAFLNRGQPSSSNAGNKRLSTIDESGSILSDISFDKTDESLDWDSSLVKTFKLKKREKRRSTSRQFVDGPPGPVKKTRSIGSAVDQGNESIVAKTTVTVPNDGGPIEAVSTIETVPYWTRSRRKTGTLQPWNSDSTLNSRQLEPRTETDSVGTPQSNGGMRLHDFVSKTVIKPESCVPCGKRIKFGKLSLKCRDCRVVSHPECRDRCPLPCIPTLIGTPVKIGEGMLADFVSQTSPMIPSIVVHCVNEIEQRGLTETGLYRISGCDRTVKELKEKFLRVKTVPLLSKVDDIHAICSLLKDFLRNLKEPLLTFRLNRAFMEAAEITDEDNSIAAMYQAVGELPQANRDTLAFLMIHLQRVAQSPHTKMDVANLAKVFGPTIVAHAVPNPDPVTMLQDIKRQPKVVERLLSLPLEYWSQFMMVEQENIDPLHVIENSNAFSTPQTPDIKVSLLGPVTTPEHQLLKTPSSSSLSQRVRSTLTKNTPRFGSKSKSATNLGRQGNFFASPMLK

[8] = viability of uninfected HEp-2 cells – cell-based, HTS, cytotoxicity control for RSV inhibitor project, dose response (AID 2410); assay type: functional; details: human respiratory syncytial virus
[9] = cells; assay type: functional, cell-based; remark: listed apart in the source
[10] = cells; assay type: functional, cell-based; remark: listed apart in the source
[11] = biological target: T3, Estrogen receptor (Homo sapiens, UniProt P03372);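 further: potency for inhibiting coactivator peptide recruitment to the receptor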
T3 sequence (P03372 whole entry): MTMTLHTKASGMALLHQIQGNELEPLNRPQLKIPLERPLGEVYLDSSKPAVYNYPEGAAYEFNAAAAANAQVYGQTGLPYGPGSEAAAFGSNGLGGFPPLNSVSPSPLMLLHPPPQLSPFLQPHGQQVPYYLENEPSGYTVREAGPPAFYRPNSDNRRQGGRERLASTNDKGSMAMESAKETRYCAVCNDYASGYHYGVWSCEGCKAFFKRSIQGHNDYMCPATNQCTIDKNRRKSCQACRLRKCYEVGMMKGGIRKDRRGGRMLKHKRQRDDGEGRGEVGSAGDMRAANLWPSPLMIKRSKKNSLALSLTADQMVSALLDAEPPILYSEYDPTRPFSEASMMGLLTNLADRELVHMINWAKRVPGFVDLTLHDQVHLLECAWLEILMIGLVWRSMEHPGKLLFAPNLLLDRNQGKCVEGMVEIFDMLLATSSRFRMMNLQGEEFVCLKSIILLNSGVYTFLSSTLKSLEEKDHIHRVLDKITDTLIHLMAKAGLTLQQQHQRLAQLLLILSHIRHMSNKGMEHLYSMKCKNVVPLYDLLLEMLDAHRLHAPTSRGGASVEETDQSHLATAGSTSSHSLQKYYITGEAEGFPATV

[12] = biological target: T4, DNA repair protein RAD52 homolog (Homo sapiens, UniProt P43351); assay type: functional, biochemical
T4 sequence (P43351 whole entry): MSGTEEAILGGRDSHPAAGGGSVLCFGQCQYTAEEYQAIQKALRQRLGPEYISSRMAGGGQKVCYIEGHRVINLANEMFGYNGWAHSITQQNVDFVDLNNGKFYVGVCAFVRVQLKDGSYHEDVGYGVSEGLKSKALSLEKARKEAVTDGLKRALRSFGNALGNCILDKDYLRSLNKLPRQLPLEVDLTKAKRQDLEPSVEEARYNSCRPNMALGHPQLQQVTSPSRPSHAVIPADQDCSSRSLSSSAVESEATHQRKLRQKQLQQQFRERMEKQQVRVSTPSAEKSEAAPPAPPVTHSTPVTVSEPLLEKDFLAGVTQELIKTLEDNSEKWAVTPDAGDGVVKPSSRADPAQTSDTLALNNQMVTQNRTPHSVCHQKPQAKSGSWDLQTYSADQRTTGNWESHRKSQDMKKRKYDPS

[13] = test system: HEK293; assay: cells; assay type: functional, cell-based; details: Homo sapiens
[14] = biological target: Nucleotide-binding oligomerization domain-containing protein 2 (Homo sapiens, UniProt Q9HC29); assay: inhibition of NOD2-driven NF-kB reporter – cell-based, luminescence, uHTS, HEK293 (AID 1566); assay type: functional
[15] = biological target: Tumor necrosis factor (Homo sapiens, UniProt P01375); assay: analog potency on TNFa NF-kB signaling – cell-based, revised, SAR follow-up (AID 2337); assay type: functional
[16] = test system: HEK293; assay: inhibition of NOD1-driven NF-kB reporter – cell-based, luminescence, uHTS, primary screen (AID 1578); assay type: functional; details: Homo sapiens
[17] = test system: HEK293; assay: cells; assay type: functional, cell-based; details: Homo sapiens; remark: listed apart in the source
[18] = test system: HEK293; assay: NOD2 signaling inhibitors in MDP-stimulated cells, cell-based, uHTS, luminescence (AID 2001); assay type: functional; details: Homo sapiens
[19] = test system: HEK293; assay: cells; assay type: functional, cell-based; details: Homo sapiens; remark: listed apart in the source
[20] = test system: HEK293; assay: cells; details: Homo sapiens
[21] = biological target: T5, Nucleotide-binding oligomerization domain-containing protein 1 (Homo sapiens, UniProt Q9Y239); assay: blockers of NOD1 pathway activity – revised, SAR follow-up (AID 2333); assay type: functional
T5 sequence (Q9Y239 whole entry): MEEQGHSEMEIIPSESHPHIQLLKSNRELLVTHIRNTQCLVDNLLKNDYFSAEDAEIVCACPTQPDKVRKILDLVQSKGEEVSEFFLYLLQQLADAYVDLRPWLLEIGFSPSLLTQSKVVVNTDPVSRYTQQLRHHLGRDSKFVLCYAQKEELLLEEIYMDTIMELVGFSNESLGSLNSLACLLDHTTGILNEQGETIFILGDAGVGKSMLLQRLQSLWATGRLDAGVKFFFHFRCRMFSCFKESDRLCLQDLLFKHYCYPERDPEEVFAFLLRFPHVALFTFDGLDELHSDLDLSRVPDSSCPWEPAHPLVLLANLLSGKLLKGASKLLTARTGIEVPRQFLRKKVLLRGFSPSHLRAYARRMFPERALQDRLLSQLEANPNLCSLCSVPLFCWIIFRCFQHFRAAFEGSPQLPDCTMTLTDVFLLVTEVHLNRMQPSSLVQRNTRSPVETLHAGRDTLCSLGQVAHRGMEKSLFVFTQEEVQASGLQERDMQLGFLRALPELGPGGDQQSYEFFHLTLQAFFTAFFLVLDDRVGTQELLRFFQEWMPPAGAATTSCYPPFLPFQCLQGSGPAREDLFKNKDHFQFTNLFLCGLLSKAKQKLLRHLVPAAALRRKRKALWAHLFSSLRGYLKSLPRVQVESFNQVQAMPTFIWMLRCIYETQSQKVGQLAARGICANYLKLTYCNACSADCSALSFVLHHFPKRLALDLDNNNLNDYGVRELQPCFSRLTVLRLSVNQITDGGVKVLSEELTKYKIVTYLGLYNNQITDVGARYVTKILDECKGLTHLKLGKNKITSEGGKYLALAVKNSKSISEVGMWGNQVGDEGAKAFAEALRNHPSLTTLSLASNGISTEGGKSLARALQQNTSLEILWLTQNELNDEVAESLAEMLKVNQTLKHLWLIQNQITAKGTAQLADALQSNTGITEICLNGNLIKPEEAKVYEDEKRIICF

[22] = OVCAR-3 cell viability loss – plate reader, dry powder samples, PAX8 inhibitor project, dose response (AID 743044); assay type: functional, cell-based
[23] = biological target: Paired box protein Pax-8 (Homo sapiens, UniProt Q06710); assay: PAX8 transcriptional activity inhibition in RMG-I – RMG-I cells, luciferase, cherry-pick, dose response (AID 687027); assay type: functional, cell-based;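 further: luciferase reporter driven by Pax8 target thyroperoxidase promoter measured by SteadyGlo luminescence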
[24] = biological target: T6, Heat shock factor protein 1 (Mus musculus, UniProt P38532); assay: decrease of HSF1-responsive luciferase luminescence – cell-based, NIH3T3, dose retest, confirmation (AID 2382); assay type: functional;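 further: NIH3T3 fibroblasts with HSF1-driven luciferase reporter stressed by proteasome inhibitor MG132; luminescence from HSF1-driven luciferase expression after 8 hours of MG132 stress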
T6 sequence (P38532 whole entry): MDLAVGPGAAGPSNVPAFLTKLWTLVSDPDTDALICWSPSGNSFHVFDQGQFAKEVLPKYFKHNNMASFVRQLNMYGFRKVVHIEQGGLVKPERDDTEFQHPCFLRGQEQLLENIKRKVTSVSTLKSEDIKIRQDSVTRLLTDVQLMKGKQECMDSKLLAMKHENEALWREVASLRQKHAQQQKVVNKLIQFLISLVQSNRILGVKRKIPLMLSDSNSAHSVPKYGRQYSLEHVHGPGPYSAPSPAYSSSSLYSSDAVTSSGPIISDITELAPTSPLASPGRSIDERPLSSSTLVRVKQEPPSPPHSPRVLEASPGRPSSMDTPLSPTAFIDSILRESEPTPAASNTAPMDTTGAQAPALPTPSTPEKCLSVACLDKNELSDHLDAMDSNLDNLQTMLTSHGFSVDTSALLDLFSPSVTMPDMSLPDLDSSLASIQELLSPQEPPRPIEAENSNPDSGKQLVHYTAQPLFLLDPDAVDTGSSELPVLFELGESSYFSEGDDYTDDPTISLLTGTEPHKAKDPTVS

Sequence of Tumor necrosis factor (P01375 whole entry): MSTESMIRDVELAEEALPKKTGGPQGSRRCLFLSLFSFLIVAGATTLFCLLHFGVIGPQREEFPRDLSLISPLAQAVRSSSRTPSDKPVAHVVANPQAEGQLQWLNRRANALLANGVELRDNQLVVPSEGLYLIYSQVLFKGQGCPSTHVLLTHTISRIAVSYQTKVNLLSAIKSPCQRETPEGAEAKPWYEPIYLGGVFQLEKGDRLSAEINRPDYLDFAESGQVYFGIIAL
Sequence of Paired box protein Pax-8 (Q06710 whole entry): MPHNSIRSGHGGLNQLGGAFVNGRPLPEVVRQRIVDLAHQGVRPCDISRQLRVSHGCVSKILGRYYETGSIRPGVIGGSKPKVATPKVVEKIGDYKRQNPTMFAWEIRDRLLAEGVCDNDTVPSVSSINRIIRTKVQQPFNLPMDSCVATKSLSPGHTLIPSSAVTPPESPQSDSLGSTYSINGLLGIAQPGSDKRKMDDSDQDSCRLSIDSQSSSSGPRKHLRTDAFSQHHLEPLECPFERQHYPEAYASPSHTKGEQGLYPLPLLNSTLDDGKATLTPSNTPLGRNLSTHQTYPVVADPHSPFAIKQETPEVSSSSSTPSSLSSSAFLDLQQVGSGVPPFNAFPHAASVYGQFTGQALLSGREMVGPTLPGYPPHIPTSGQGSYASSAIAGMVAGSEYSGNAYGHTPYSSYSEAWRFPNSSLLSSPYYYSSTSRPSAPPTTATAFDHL
Sequence of Nucleotide-binding oligomerization domain-containing protein 2 (Q9HC29 whole entry, the tested form may be a part): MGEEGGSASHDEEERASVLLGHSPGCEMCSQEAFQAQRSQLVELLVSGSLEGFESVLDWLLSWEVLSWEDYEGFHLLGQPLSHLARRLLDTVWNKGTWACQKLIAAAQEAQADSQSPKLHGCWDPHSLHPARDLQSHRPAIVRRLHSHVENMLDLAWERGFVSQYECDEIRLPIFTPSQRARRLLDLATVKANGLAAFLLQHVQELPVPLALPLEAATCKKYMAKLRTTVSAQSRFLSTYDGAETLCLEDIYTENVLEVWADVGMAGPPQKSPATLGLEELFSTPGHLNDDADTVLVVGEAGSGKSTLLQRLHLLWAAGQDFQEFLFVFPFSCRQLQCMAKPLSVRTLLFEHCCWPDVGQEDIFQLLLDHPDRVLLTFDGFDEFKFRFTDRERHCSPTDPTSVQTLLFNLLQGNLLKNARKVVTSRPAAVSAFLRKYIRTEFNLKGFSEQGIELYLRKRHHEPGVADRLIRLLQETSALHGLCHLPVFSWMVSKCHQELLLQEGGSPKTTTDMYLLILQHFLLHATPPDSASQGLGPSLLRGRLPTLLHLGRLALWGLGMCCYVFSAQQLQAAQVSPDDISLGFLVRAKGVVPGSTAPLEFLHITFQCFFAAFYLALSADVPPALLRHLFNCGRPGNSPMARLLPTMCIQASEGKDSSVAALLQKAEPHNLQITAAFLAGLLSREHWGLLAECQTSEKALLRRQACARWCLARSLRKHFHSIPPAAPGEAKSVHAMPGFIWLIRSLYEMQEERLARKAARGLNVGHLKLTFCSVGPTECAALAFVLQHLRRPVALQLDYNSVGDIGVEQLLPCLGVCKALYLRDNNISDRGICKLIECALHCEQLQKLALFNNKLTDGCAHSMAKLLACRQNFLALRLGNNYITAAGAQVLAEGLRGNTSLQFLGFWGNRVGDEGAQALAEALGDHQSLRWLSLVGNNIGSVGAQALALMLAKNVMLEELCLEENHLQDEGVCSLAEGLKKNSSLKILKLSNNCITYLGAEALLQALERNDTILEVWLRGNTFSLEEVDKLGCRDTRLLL

O=C(CCCOc1ccccc1)NCCc1ccccc1
IC50 [1]: > 29.9 µM (inactive) | EC50 [2]: > 29.9 µM (inactive)

Cc1nnc(N2CCC(C(=O)N3CCCCC3)CC2)c2nn(-c3ccc(Cl)cc3)c(C)c12
AC50 [3]: 4.14 µM (active)

COc1ccc(NC(=O)CSc2ncn(-c3ccccc3)n2)cc1Cl
IC50 [4]: > 100 µM (active)

CC(=O)c1ccc(N2CCN(C(=O)c3ccc4[nH]cnc4c3)CC2)cc1
AC50 [3]: 8.11 µM (active)

COc1ccc(NC(=O)c2ccc(S(=O)(=O)N(C)C)cc2)cc1OC
AC50 [3]: 9.66 µM (active)

O=C(Nc1nc(-c2ccc(-c3ccccc3)cc2)cs1)c1cnccn1
IC50 [4]: > 100 µM (active)

CN1/C(=N\O)c2cccc3cccc1c23
AC50 [5]: 1.28 µM (active) | CC50 [6]: > 40 µM (active) | IC50 [7]: 24.8 µM (active) | CC50 [8]: 24.9 µM (active)

CC(=O)N1[C@@H]2c3ccc(-c4cccnc4)c(=O)n3C[C@@H]2[C@@H](CO)[C@@H]1C(=O)NCc1ccccc1Cl
AC50 [3]: 1.09 µM (active)

CC(C)c1onc(C(=O)NCCc2ccccc2)c1[N+](=O)[O-]
IC50 [1]: > 29.9 µM (inactive) | EC50 [2]: > 29.9 µM (inactive)

Cn1nnc2cc(C(=O)N3CCC(c4ccccc4)C3)ccc21 (stereo unspecified)
AC50 [3]: 4.86 µM (active) | EC50 [9]: > 350 µM (not active) | EC50 [10]: > 350 µM (not active)

O=C(NNC(=O)c1ccc(SCC2CCCO2)c([N+](=O)[O-])c1)c1ccc(Cl)c([N+](=O)[O-])c1 (stereo unspecified)
IC50 [11]: 23.3 µM (active)

Cc1ccc(CNC(=O)c2cc3c(=O)n(C)c4ccccc4c3n2C)o1
AC50 [5]: > 120 µM (inactive)

N=C(N)Nc1cc2ccccc2c2ccccc12
IC50 [1]: > 29.9 µM (inactive) | EC50 [2]: > 29.9 µM (inactive) | AC50 [12]: 7.61 µM (active)

COc1ccc(/N=C/c2ccc[nH]2)cc1
IC50 [4]: > 100 µM (active)

O=C(CNCc1ccco1)Nc1ccc(Oc2ccccc2)cc1
IC50 [4]: > 100 µM (active) | IC50 [7]: 122 µM (active)

O=C(Cc1cccs1)N1CCN=C1SCc1ccc(Br)cc1
IC50 [4]: > 100 µM (active)

O=C(Nc1sc2c(c1C(=O)O)CCCC2)c1ccccc1Cl
IC50 [13]: > 20 µM (inactive) | EC50 [14]: > 20 µM (inactive) | IC50 [15]: > 20 µM (inactive) and 12.9 µM (active) | EC50 [16]: 14.5 µM (active) | IC50 [17]: > 20 µM (inactive) | IC50 [18]: 18.5 µM (inactive) | IC50 [19]: > 20 µM (inactive) | IC50 [20]: > 20 µM (inactive) | IC50 [21]: 5.12 µM (active) and 4.45 µM (active)

Cc1cc(SCC(=O)NC(=O)NCc2ccco2)nc2c(C)cccc12
IC50 [11]: 32 µM (not active)

C[C@@H]1CN([C@H](C)CO)C(=O)c2cc(NS(=O)(=O)c3ccc(Cl)cc3)ccc2O[C@@H](C)CCCCO[C@H]1CN(C)Cc1ccc(Cl)c(Cl)c1
AC50 [22]: 32.8 µM (active) | AC50 [23]: 4.84 µM (active)

CNC(=S)N/N=C/c1ccc(-c2cccc(C(=O)O)c2)o1
EC50 [24]: > 195 µM (not active) | AC50 [5]: 7.05 µM (active)

O=C(COC(=O)CCC(=O)c1cccs1)NCc1ccco1
IC50 [11]: 11.9 µM (active)
